Source: patent US20230293518A1 (Edgewise Therapeutics, Inc., priority 2020, published 2023)

The compounds below were run against skeletal myofibrils (myosin ATPase) (assay: Skeletal Myofibril ATPase Assay). Details: Table 4A.
Assay type: biochemical
In short: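 Skeletal myofibril ATPase activity was measured via PK-LDH coupling, following NADH loss at 340 nm every 1.5-2 min for 45 min in PIPES/CaCl2/EGTA pCa buffer, pH 7.0. Max−Min slopes were normalised to 1% DMSO vehicle (100%) and fit to a four-parameter logistic (bottom ≥0) for IC50.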
For CCNC(=O)Cn1nc(-c2ccc(SC)nc2)ccc1=O [Compound I-63, N-ethyl-2-(3-(6-(methylthio)pyridin-3-yl)-6-oxopyridazin-1(6H)-yl)acetamide], the IC50 was under 10 µM.
With CCNC(=O)Cn1nc(-c2ccc(N(C)C34CC(C3)C4)nc2)ccc1=O [Compound I-64, 2-(3-(6-(bicyclo[1.1.1]pentan-1-yl(methyl)amino)pyridin-3-yl)-6-oxopyridazin-1(6H)-yl)-N-ethylacetamide] the IC50 was under 10 µM.
CCNC(=O)Cn1nc(-c2ccc(OC(F)(F)F)nc2)ccc1=O [Compound I-14, N-ethyl-2-(6-oxo-3-(6-(trifluoromethoxy)pyridin-3-yl)pyridazin-1(6H)-yl)acetamide] was tested, and the IC50 was 10 to 100 µM.
CCNC(=O)Cn1nc(-c2cnc(NC34CC(O)(C3)C4)nc2)ccc1=O [Compound I-42, N-ethyl-2-(3-(2-((3-hydroxybicyclo[1.1.1]pentan-1-yl)amino)pyrimidin-5-yl)-6-oxopyridazin-1(6H)-yl)acetamide] showed an IC50 of 10 to 100 µM.
For CCNC(=O)Cn1nc(-c2cnc(Nc3ccc(Cl)cc3)nc2)ccc1=O [Compound I-1, 2-(3-(2-((4-chlorophenyl)amino)pyrimidin-5-yl)-6-oxopyridazin-1(6H)-yl)-N-ethylacetamide], the IC50 was under 10 µM.
O=C(Cn1nc(-c2ccc(NC34CC(C3)C4)nc2)ccc1=O)N1CCC1 [Compound I-39, 2-(2-(azetidin-1-yl)-2-oxoethyl)-6-(6-(bicyclo[1.1.1]pentan-1-ylamino)pyridin-3-yl)pyridazin-3(2H)-one] was tested, and the IC50 was 10 to 100 µM.
CCNC(=O)Cn1nc(-c2cnc(OCC(F)(F)F)nc2)ccc1=O [Compound I-8, N-ethyl-2-(6-oxo-3-(2-(2,2,2-trifluoroethoxy)pyrimidin-5-yl)pyridazin-1(6H)-yl)acetamide] gave an IC50 of under 10 µM.
CCNC(=O)Cn1nc(-c2ccc(OC(F)F)nc2)ccc1=O [Compound I-7, 2-[3-[6-(difluoromethoxy)pyridin-3-yl]-6-oxo-1,6-dihydropyridazin-1-yl]-N-ethylacetamide] was tested, and the IC50 was under 10 µM.
Compound CCNC(=O)Cn1nc(-c2ccc(N3CC(OC(F)F)C3)nc2)ccc1=O [Compound I-55, 2-(3-(6-(3-(difluoromethoxy)azetidin-1-yl)pyridin-3-yl)-6-oxopyridazin-1(6H)-yl)-N-ethylacetamide] has an IC50 of 10 to 100 µM.
Work on CCNC(=O)Cn1nc(-c2ccc(NC(C)(C)C)nc2)ccc1=O [Compound I-53, 2-(3-(6-(tert-butylamino)pyridin-3-yl)-6-oxopyridazin-1(6H)-yl)-N-ethylacetamide] yielded an IC50 of under 10 µM.
Work on CCNC(=O)Cn1nc(-c2ccc(C3CC3)nc2)ccc1=O [Compound I-12, 2-(3-(6-cyclopropylpyridin-3-yl)-6-oxopyridazin-1(6H)-yl)-N-ethylacetamide] yielded an IC50 of 10 to 100 µM.
In the case of CCNC(=O)Cn1nc(-c2ccc(OCC(F)(F)F)nc2)ccc1=O [Compound I-13, N-ethyl-2-(6-oxo-3-(6-(2,2,2-trifluoroethoxy)pyridin-3-yl)pyridazin-1(6H)-yl)acetamide], the IC50 is reported as 10 to 100 µM.
CC(C)COc1ncc(-c2ccc(=O)n(CC(=O)NC3CCC3)n2)cn1 [Compound I-79, N-cyclobutyl-2-[3-[2-(2-methylpropoxy)pyrimidin-5-yl]-6-oxopyridazin-1-yl]acetamide] gave an IC50 of over 100 µM.

Same assay, conditions: Table 4B
Work on O=C(Cn1nc(-c2ccc(OCC(F)(F)F)cc2)ccc1=O)NCc1ccc(O)nc1 [II-20, N-((6-hydroxypyridin-3-yl)methyl)-2-(6-oxo-3-(4-(2,2,2-trifluoroethoxy)phenyl)pyridazin-1(6H)-yl)acetamide] yielded an IC50 of over 100 µM.
In the case of CC(C)NC(=O)Cn1nc(-c2ccc(OC(F)(F)F)cc2)ccc1=O [II-4, N-isopropyl-2-(6-oxo-3-(4-(trifluoromethoxy)phenyl)pyridazin-1(6H)-yl)acetamide], the IC50 is reported as under 10 µM.
For O=C(Cn1nc(-c2ccc(OC(F)F)cc2)ccc1=O)NCC(F)(F)F [II-11, 2-(3-(4-(difluoromethoxy)phenyl)-6-oxopyridazin-1(6H)-yl)-N-(2,2,2-trifluoroethyl) acetamide], the IC50 was 10 to 100 µM.
CC(C)(C)NC(=O)Cn1nc(-c2ccc(OC(F)F)cc2)ccc1=O [II-16, N-(tert-butyl)-2-(3-(4-(difluoromethoxy)phenyl)-6-oxopyridazin-1(6H)-yl)acetamide] gave an IC50 of 10 to 100 µM.

Same assay, conditions: Table 4C
For COc1ccc(-c2ccc(=O)n(CC(=O)NCc3cccc(F)c3)n2)cc1 [IIIb-32, N-(3-fluorobenzyl)-2-(3-(4-methoxyphenyl)-6-oxopyridazin-1(6H)-yl)acetamide], the IC50 was 10 to 100 µM.
O=C(Cn1nc(-c2ccccc2)ccc1=O)NCCC1=CCCCC1 [IIIc-48, N-(2-(cyclohex-1-en-1-yl)ethyl)-2-(6-oxo-3-phenylpyridazin-1(6H)-yl)acetamide] was tested, and the IC50 was under 10 µM.
In the case of COc1ccc(-c2ccc(=O)n(CC(=O)NCc3nccn3C)n2)cc1 [IIIa-33, 2-(3-(4-methoxyphenyl)-6-oxopyridazin-1(6H)-yl)-N-((1-methyl-1H-imidazol-2-yl)methyl) acetamide], the IC50 is reported as over 100 µM.
With COCCNC(=O)Cn1nc(-c2ccc(OC)cc2)ccc1=O [IIIb-47, N-(2-methoxyethyl)-2-(3-(4-methoxyphenyl)-6-oxopyridazin-1(6H)-yl)acetamide] the IC50 was over 100 µM.
With CCNC(=O)Cn1nc(-c2ccc(OCC3(F)COC3)cc2)ccc1=O [IIIa-27, N-ethyl-2-(3-(4-((3-fluorooxetan-3-yl)methoxy)phenyl)-6-oxopyridazin-1(6H)-yl)acetamide] the IC50 was 10 to 100 µM.
For COc1ccc(-c2ccc(=O)n(CC(=O)Nc3cccc4c3ccn4C)n2)cc1 [IIIb-4, 2-(3-(4-methoxyphenyl)-6-oxopyridazin-1(6H)-yl)-N-(1-methyl-1H-indol-4-yl)acetamide], the IC50 was under 10 µM.
For Cc1ccc(-c2ccc(=O)n(CC(=O)NCCc3ccccc3)n2)cc1 [IIIc-3, 2-(6-oxo-3-(p-tolyl)pyridazin-1(6H)-yl)-N-phenethylacetamide], the IC50 was under 10 µM.
For COc1ccc(-c2ccc(=O)n(CC(=O)NC3CC3)n2)c(F)c1 [IIIb-58, N-cyclopropyl-2-(3-(2-fluoro-4-methoxyphenyl)-6-oxopyridazin-1(6H)-yl)acetamide], the IC50 was over 100 µM.
Work on COc1ccc(-c2ccc(=O)n(CC(=O)Nc3cccc4[nH]ccc34)n2)cc1 [IIIb-3, N-(1H-indol-4-yl)-2-(3-(4-methoxyphenyl)-6-oxopyridazin-1(6H)-yl)acetamide] yielded an IC50 of under 10 µM.
For COc1ccc(-c2ccc(=O)n(CC(=O)NCc3cnn(C)c3)n2)cc1 [IIIa-32, 2-(3-(4-methoxyphenyl)-6-oxopyridazin-1(6H)-yl)-N-((1-methyl-1H-pyrazol-4-yl)methyl) acetamide], the IC50 was over 100 µM.
COc1ccc(-c2ccc(=O)n(CC(=O)Nc3ccc(Cl)cc3Cl)n2)c(F)c1 [IIIb-35, N-(2,4-dichlorophenyl)-2-(3-(2-fluoro-4-methoxyphenyl)-6-oxopyridazin-1(6H)-yl)acetamide] was tested, and the IC50 was 10 to 100 µM.
In the case of COc1ccc(-c2ccc(=O)n(CC(=O)NC3CCCCC3)n2)c(F)c1 [IIIb-60, N-cyclohexyl-2-(3-(2-fluoro-4-methoxyphenyl)-6-oxopyridazin-1(6H)-yl)acetamide], the IC50 is reported as over 100 µM.
For Cn1ccc2c(NC(=O)Cn3nc(-c4ccc(F)cc4)ccc3=O)cccc21 [IIIc-16, 2-(3-(4-fluorophenyl)-6-oxopyridazin-1(6H)-yl)-N-(1-methyl-1H-indol-4-yl)acetamide], the IC50 was under 10 µM.
With COc1ccc(-c2ccc(=O)n(CC(=O)NCc3ccccc3)n2)c(F)c1 [IIIb-54, N-benzyl-2-(3-(2-fluoro-4-methoxyphenyl)-6-oxopyridazin-1(6H)-yl)acetamide] the IC50 was over 100 µM.
